The NIST ThermoML archive (doi:10.1021/je025657+)
“And” between values parts separate entries of the source, which are not always exact repeats. Equal values may be shown once.

COC(F)(F)C(F)(F)F [methyl pentafluoroethyl ether]
Settings | mass density [kg/m3]
330 K, 2009.1 kPa, Liquid | 1174.81
330 K, 2033.5 kPa, Liquid | 1173.24
330 K, 2499.3 kPa, Liquid | 1178.46
330 K, 3014.1 kPa, Liquid | 1182.15
330 K, 3040.4 kPa, Liquid | 1180.5
330 K, 3527.6 kPa, Liquid | 1185.73
330 K, 4007.5 kPa, Liquid | 1188.95
330 K, 4054 kPa, Liquid | 1187.37
330 K, 4522.8 kPa, Liquid | 1192.32
330 K, 5044.3 kPa, Liquid | 1195.65
330 K, 5095.2 kPa, Liquid | 1194.02
330 K, 5526.8 kPa, Liquid | 1198.64
330 K, 6004.2 kPa, Liquid | 1201.54
330 K, 6121.5 kPa, Liquid | 1200.18
330 K, 6544.9 kPa, Liquid | 1204.73
330 K, 7006.4 kPa, Liquid | 1207.37
330 K, 7184 kPa, Liquid | 1206.23
340 K, 72.2 kPa, Gas | 3.93
340 K, 97.1 kPa, Gas | 5.22
340 K, 106 kPa, Gas | 5.76
340 K, 154.8 kPa, Gas | 8.59
340 K, 198.1 kPa, Gas | 11.09
340 K, 224.8 kPa, Gas | 12.57
340 K, 295.9 kPa, Gas | 17.05
340 K, 323.2 kPa, Gas | 18.7
340 K, 396.6 kPa, Gas | 23.61
340 K, 495.8 kPa, Gas | 30.46
340 K, 596 kPa, Gas | 38.08
340 K, 597.2 kPa, Gas | 38.04
340 K, 707 kPa, Liquid | 1124.67
340 K, 722.8 kPa, Liquid | 1124.82
340 K, 1026.7 kPa, Liquid | 1129.54
340 K, 1053.7 kPa, Liquid | 1128.14
340 K, 1524.7 kPa, Liquid | 1134.41
340 K, 1999.2 kPa, Liquid | 1137.11
340 K, 2020.3 kPa, Liquid | 1139.04
340 K, 2516 kPa, Liquid | 1143.49
340 K, 3002.4 kPa, Liquid | 1147.7
340 K, 3017 kPa, Liquid | 1145.96
340 K, 3529.7 kPa, Liquid | 1152.07
340 K, 3993.9 kPa, Liquid | 1155.78
340 K, 4072.4 kPa, Liquid | 1154.47
340 K, 4525.8 kPa, Liquid | 1159.9
340 K, 5046.6 kPa, Liquid | 1163.8
340 K, 5093 kPa, Liquid | 1162.13
340 K, 5487.3 kPa, Liquid | 1166.99
340 K, 6030.7 kPa, Liquid | 1170.83
340 K, 6115.2 kPa, Liquid | 1169.4
340 K, 6527.2 kPa, Liquid | 1174.25
340 K, 7001.9 kPa, Liquid | 1177.33
340 K, 7160.8 kPa, Liquid | 1176.36
350 K, 71.4 kPa, Gas | 3.8
350 K, 104.7 kPa, Gas | 5.6
350 K, 129.8 kPa, Gas | 6.86
350 K, 152.8 kPa, Gas | 8.19
350 K, 222 kPa, Gas | 12.14
350 K, 275 kPa, Gas | 15.14
350 K, 319.9 kPa, Gas | 17.93
350 K, 395 kPa, Gas | 22.4
350 K, 455.2 kPa, Gas | 26.4
350 K, 560.7 kPa, Gas | 33.51
350 K, 777.4 kPa, Gas | 50.08
350 K, 799.2 kPa, Gas | 52.12
350 K, 902.4 kPa, Liquid | 1084.92
350 K, 933 kPa, Liquid | 1085.29
350 K, 1008.2 kPa, Liquid | 1087.64
350 K, 1049.9 kPa, Liquid | 1086.78
350 K, 1470.3 kPa, Liquid | 1093.45
350 K, 2013.5 kPa, Liquid | 1099.88
350 K, 2056.5 kPa, Liquid | 1098.92
350 K, 2517.3 kPa, Liquid | 1105.5
350 K, 3024.3 kPa, Liquid | 1110.87
350 K, 3061.7 kPa, Liquid | 1109.59
350 K, 3474.5 kPa, Liquid | 1115.43
350 K, 4005.1 kPa, Liquid | 1120.6
350 K, 4100.2 kPa, Liquid | 1119.85
350 K, 4481.5 kPa, Liquid | 1124.97
350 K, 4979.5 kPa, Liquid | 1129.41
350 K, 5116.8 kPa, Liquid | 1128.93
350 K, 5469.1 kPa, Liquid | 1133.62
350 K, 5973.9 kPa, Liquid | 1137.8
350 K, 6125.5 kPa, Liquid | 1137.3
350 K, 6531.4 kPa, Liquid | 1142.27
350 K, 6996.6 kPa, Liquid | 1145.86
350 K, 7196.9 kPa, Liquid | 1145.6
360 K, 45.3 kPa, Gas | 2.31
360 K, 98.2 kPa, Gas | 5.11
360 K, 137.2 kPa, Gas | 7.1
360 K, 200.1 kPa, Gas | 10.49
360 K, 231.4 kPa, Gas | 12.2
360 K, 289.8 kPa, Gas | 15.49
360 K, 334.5 kPa, Gas | 18.07
360 K, 415.3 kPa, Gas | 22.84
360 K, 477.9 kPa, Gas | 26.77
360 K, 586.1 kPa, Gas | 33.71
360 K, 670.7 kPa, Gas | 39.54
360 K, 807.9 kPa, Gas | 49.64
360 K, 915.4 kPa, Gas | 58.53
360 K, 990.4 kPa, Gas | 65.14
360 K, 1139.7 kPa, Liquid | 1041.29
360 K, 1228 kPa, Liquid | 1042.77
360 K, 1529.8 kPa, Liquid | 1049.05
360 K, 2003.3 kPa, Liquid | 1056.42
360 K, 2053.3 kPa, Liquid | 1055.56
360 K, 2463 kPa, Liquid | 1063.09
360 K, 2984.8 kPa, Liquid | 1070.14
360 K, 3048.1 kPa, Liquid | 1069.38
360 K, 3506.1 kPa, Liquid | 1076.76
360 K, 4021.5 kPa, Liquid | 1082.91
360 K, 4078.7 kPa, Liquid | 1081.81
360 K, 4467.5 kPa, Liquid | 1087.96
360 K, 5021.2 kPa, Liquid | 1093.94
360 K, 5093.9 kPa, Liquid | 1092.92
360 K, 5527.2 kPa, Liquid | 1099.14
360 K, 5980.2 kPa, Liquid | 1103.61
360 K, 6147.8 kPa, Liquid | 1103.45
360 K, 6519.9 kPa, Liquid | 1108.71
360 K, 6997.3 kPa, Liquid | 1113.07
360 K, 7245.1 kPa, Liquid | 1113.38
370 K, 71.6 kPa, Gas | 3.44
370 K, 105.5 kPa, Gas | 5.15
370 K, 120.9 kPa, Gas | 6.04
370 K, 154.8 kPa, Gas | 7.64
370 K, 176.6 kPa, Gas | 8.92
370 K, 226.2 kPa, Gas | 11.41
370 K, 256.7 kPa, Gas | 13.19
370 K, 328.5 kPa, Gas | 16.95
370 K, 370 kPa, Gas | 19.53
370 K, 471.8 kPa, Gas | 25.21
370 K, 527.2 kPa, Gas | 28.67
370 K, 666.8 kPa, Gas | 37.39
370 K, 737.9 kPa, Gas | 42.35
370 K, 920.6 kPa, Gas | 55.26
370 K, 1005.3 kPa, Gas | 62.34
370 K, 1205.2 kPa, Gas | 80.41
370 K, 1224.5 kPa, Gas | 81.87
370 K, 1277.5 kPa, Gas | 87.49
370 K, 1278.1 kPa, Gas | 88.01
370 K, 1404.3 kPa, Liquid | 992.2
370 K, 1431.7 kPa, Liquid | 992.85
370 K, 1520 kPa, Liquid | 995.4
370 K, 1998.7 kPa, Liquid | 1006.05
370 K, 2031.8 kPa, Liquid | 1006.03
370 K, 2519.7 kPa, Liquid | 1016.39
370 K, 3015.7 kPa, Liquid | 1025.26
370 K, 3042 kPa, Liquid | 1024.99
370 K, 3496.9 kPa, Liquid | 1033.2
370 K, 4012.1 kPa, Liquid | 1041.13
370 K, 4077.7 kPa, Liquid | 1041.14
370 K, 4515.8 kPa, Liquid | 1048.28
370 K, 5031.9 kPa, Liquid | 1055.14
370 K, 5127.4 kPa, Liquid | 1055.31
370 K, 5527.5 kPa, Liquid | 1061.36
370 K, 5982.5 kPa, Liquid | 1066.79
370 K, 6112.9 kPa, Liquid | 1067.19
370 K, 6526.3 kPa, Liquid | 1072.95
370 K, 6886.1 kPa, Liquid | 1076.82
370 K, 7213.4 kPa, Liquid | 1079.13
380 K, 74.8 kPa, Gas | 3.57
380 K, 110.1 kPa, Gas | 5.3
380 K, 161.5 kPa, Gas | 7.87
380 K, 235.9 kPa, Gas | 11.67
380 K, 268.9 kPa, Gas | 13.32
380 K, 342.4 kPa, Gas | 17.25
380 K, 408.5 kPa, Gas | 20.83
380 K, 492.2 kPa, Gas | 25.55
380 K, 502.4 kPa, Gas | 26.12
380 K, 602.7 kPa, Gas | 31.98
380 K, 697.5 kPa, Gas | 37.81
380 K, 703.9 kPa, Gas | 38.16
380 K, 804.6 kPa, Gas | 44.65
380 K, 899.8 kPa, Gas | 51.1
380 K, 969.2 kPa, Gas | 56.06
380 K, 1019.1 kPa, Gas | 59.71
380 K, 1101.8 kPa, Gas | 66.08
380 K, 1212.9 kPa, Gas | 75.17
380 K, 1295.3 kPa, Gas | 82.53
380 K, 1299.2 kPa, Gas | 82.86
380 K, 1417.2 kPa, Gas | 94.38
380 K, 1486.5 kPa, Gas | 101.79
380 K, 1486.8 kPa, Gas | 101.8
380 K, 1499.7 kPa, Gas | 103.34
380 K, 1530.9 kPa, Gas | 107.11
380 K, 1744.3 kPa, Liquid | 935.88
380 K, 1763.3 kPa, Liquid | 936.59
380 K, 1785 kPa, Liquid | 937.35
380 K, 1807.8 kPa, Liquid | 938.21
380 K, 2057.3 kPa, Liquid | 946.7
380 K, 2481.3 kPa, Liquid | 959.56
380 K, 2986.2 kPa, Liquid | 972.71
380 K, 3036.6 kPa, Liquid | 973.66
380 K, 3496.2 kPa, Liquid | 984.34
380 K, 4004.9 kPa, Liquid | 994.7
380 K, 4035.7 kPa, Liquid | 994.89
380 K, 4514.5 kPa, Liquid | 1004.14
380 K, 4998.2 kPa, Liquid | 1012.37
380 K, 5093.2 kPa, Liquid | 1013.21
380 K, 5510.3 kPa, Liquid | 1020.45
380 K, 6032.6 kPa, Liquid | 1028.11
380 K, 6103.7 kPa, Liquid | 1028.48
380 K, 6514.1 kPa, Liquid | 1034.76
380 K, 7011.9 kPa, Liquid | 1041.19
380 K, 7127.1 kPa, Liquid | 1041.96

mass density
Settings | 330 K | 340 K | 350 K | 360 K | 370 K | 380 K
Gas | – | 47.9 kg/m3 | 61.38 kg/m3 | 77.81 kg/m3 | 101.33 kg/m3 | 133.96 kg/m3
Liquid | 1161.46 kg/m3 and 1163.08 kg/m3 | 1124.55 kg/m3 and 1126.1 kg/m3 and 1126.12 kg/m3 | 1084.74 kg/m3 and 1086.06 kg/m3 | 1040.97 kg/m3 and 1042.15 kg/m3 and 1042.21 kg/m3 | 991.98 kg/m3 and 992.32 kg/m3 and 992.42 kg/m3 | 934.86 kg/m3 and 935.87 kg/m3
